Experimental data from ChEMBL document CHEMBL1139150, “Design of antimicrobial compounds based on peptide structures” (Bioorg Med Chem Lett, 2007).
Values after ≈ are worked out from the molar mass of the structure shown. Peptide text beside a SMILES is read from it.

Tests used:
[1] = Induction of erythrocyte lysis at 100 uM; assay type: cell-based; details: human, erythrocytes; read-out: Activity
[2] = system: Escherichia coli; assay: Antibacterial activity against Escherichia coli; assay type: functional
[3] = system: Bacillus subtilis; assay: Antibacterial activity against Bacillus subtilis; assay type: functional

NCCNC(=O)[C@H](Cc1c[nH]c2ccccc12)NC(=O)c1cc(C(=O)N[C@@H](Cc2c[nH]c3ccccc23)C(=O)NCCN)cc(C(=O)N[C@@H](Cc2c[nH]c3ccccc23)C(=O)NCCN)c1 gave a hemolysis at 100 µM [1] of 1.2%, an MIC [2] greater than 125 µM and an MIC [3] of 31.3 µM (≈ 28 µg/mL).

Compound NCCCC[C@@H]1NC(=O)[C@H](CCCCN)NC(=O)[C@H](Cc2ccccc2)NC(=O)[C@H](CCCCN)NC(=O)[C@H](Cc2c[nH]c3ccccc23)NC(=O)[C@H](Cc2c[nH]c3ccccc23)NC1=O (cyclo(FKKWWK)) has a hemolysis at 100 µM [1] of 10%, an MIC [2] of 25 µM (≈ 22.6 µg/mL) and an MIC [3] of 25 µM (≈ 22.6 µg/mL).

Compound NCCNC(=O)[C@@H](N)Cc1c[nH]c2ccccc12 has a hemolysis at 100 µM [1] of less than 1%, an MIC [2] greater than 250 µM and an MIC [3] greater than 250 µM.

N=C(N)NCCCCCNC(=O)[C@H](Cc1c[nH]c2ccccc12)NC(=O)c1cc(C(=O)N[C@@H](Cc2c[nH]c3ccccc23)C(=O)NCCCCCNC(=N)N)cc(C(=O)N[C@@H](Cc2c[nH]c3ccccc23)C(=O)NCCCCCNC(=N)N)c1 gave a hemolysis at 100 µM [1] of 22.6%, an MIC [2] of 15.6 µM (≈ 17.9 µg/mL) and an MIC [3] of 2 µM (≈ 2.29 µg/mL).

For N=C(N)NCCNC(=O)[C@H](Cc1c[nH]c2ccccc12)NC(=O)c1cc(C(=O)N[C@@H](Cc2c[nH]c3ccccc23)C(=O)NCCNC(=N)N)cc(C(=O)N[C@@H](Cc2c[nH]c3ccccc23)C(=O)NCCNC(=N)N)c1, the hemolysis at 100 µM [1] was 5.1%, the MIC [2] was greater than 125 µM and the MIC [3] was 3.9 µM (≈ 3.98 µg/mL).

NCCCCCNC(=O)[C@H](Cc1c[nH]c2ccccc12)NC(=O)c1cc(C(=O)N[C@@H](Cc2c[nH]c3ccccc23)C(=O)NCCCCCN)cc(C(=O)N[C@@H](Cc2c[nH]c3ccccc23)C(=O)NCCCCCN)c1 gave a hemolysis at 100 µM [1] of 0.4%, an MIC [2] of 62.5 µM (≈ 63.8 µg/mL) and an MIC [3] of 31.3 µM (≈ 32 µg/mL).

N=C(N)NCCC[C@@H]1NC(=O)[C@H](CCCNC(=N)N)NC(=O)[C@H](Cc2ccccc2)NC(=O)[C@H](CCCNC(=N)N)NC(=O)[C@H](Cc2c[nH]c3ccccc23)NC(=O)[C@H](Cc2c[nH]c3ccccc23)NC1=O (cyclo(RRWWRF)) gave a hemolysis at 100 µM [1] of 24%, an MIC [2] of 6.3 µM (≈ 6.23 µg/mL) and an MIC [3] of 3.1 µM (≈ 3.06 µg/mL).

In the case of O=C(O)c1cc(C(=O)O)cc(C(=O)O)c1, the hemolysis at 100 µM [1] is reported as less than 1%, the MIC [2] is reported as greater than 250 µM and the MIC [3] is reported as greater than 250 µM.

NCCCCCNC(=O)[C@@H](N)Cc1c[nH]c2ccccc12 gave a hemolysis at 100 µM [1] of less than 1%, an MIC [2] greater than 250 µM and an MIC [3] greater than 250 µM.
